# Measured values reported in patent publication US20240279241A1, “PYRIDO[4,3-D]PYRIMIDINE COMPOUNDS CAPABLE OF INHIBITING KRAS MUTANT PROTEINS” (Redx Pharma PLC, priority 2021, published 2024).
# Like-named read-outs stand apart in the source and are kept apart here.
# How the values were obtained:
# Assay type in all cases: biochemical
# [1] = target: T1, KRAS G12D (Homo sapiens, UniProt P01116, G12D); assay: HTRF nucleotide exchange assay (NEA), KRAS G12D; conditions: recombinant human KRAS G12D aa1-188, 2 nM; lowest class = % inhibition at 10 μM
# T1 construct: Recombinant human RAS protein (2 nM)
# T1 sequence (P01116 1-188 isoform P01116-2 G12D): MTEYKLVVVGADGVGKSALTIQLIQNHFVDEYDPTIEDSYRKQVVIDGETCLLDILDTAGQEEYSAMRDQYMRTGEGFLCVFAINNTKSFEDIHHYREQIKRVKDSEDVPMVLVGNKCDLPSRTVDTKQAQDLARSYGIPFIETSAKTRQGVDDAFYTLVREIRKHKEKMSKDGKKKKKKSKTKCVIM
# Method: (§1) The capacity of compounds to bind KRAS G12D, other KRAS mutants and wildtype RAS isoforms was quantified using a HTRF nucleotide exchange assay. Recombinant human RAS protein (2 nM; aa1-188 KRAS WT, HRAS WT, NRAS WT, or KRAS containing the containing the G12D, G13D or Q61H amino acid substitutions, or 4 nM KRAS; aa1-188 containing the G12V, G12C, G12A or G12S amino acid substitution, an N-terminal 6×His-tag and leader sequence), and 2 nM Europium-labeled anti-6×His antibody were mixed in assay buffer (10 mM HEPES pH7.3, 150 mM NaCl, 5 mM MgCl2, 0.05% BSA, 0.0025% NP-40 and 100 mM KF) with various concentrations of compound in a 384-well plate and a volume of 5 uL. After a 60-minute incubation at room temperature, 5 ul of 200 nM EDA-GTP-DY647P1 (diluted in assay buffer) was added to the plate. Following 30-minute incubation at room temperature, time-resolved fluorescence was measured on a PerkinElmer Envision plate reader. DMSO (0.3%) and unlabeled […] (1 μM) or equivalent tool compound were used to generate the Max and Min assay signals, respectively. Data was analysed using a four-parameter logistic model to calculate IC50 values, with at least two independent replicates were performed for each compound.
# [2] = target: T2, KRAS WT (Homo sapiens, UniProt P01116); assay: HTRF nucleotide exchange assay (NEA), KRAS WT
# T2 construct: Recombinant human RAS protein (2 nM); aa1-188 KRAS WT
# T2 sequence (P01116 1-188 isoform P01116-2): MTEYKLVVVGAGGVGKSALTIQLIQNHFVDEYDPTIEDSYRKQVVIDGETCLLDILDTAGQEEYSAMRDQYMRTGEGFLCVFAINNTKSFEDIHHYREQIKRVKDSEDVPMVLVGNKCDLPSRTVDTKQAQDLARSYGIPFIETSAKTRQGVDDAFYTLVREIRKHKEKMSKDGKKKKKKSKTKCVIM
# Method: as §1
# [3] = target: T3, KRAS G12C (Homo sapiens, UniProt P01116, G12C); assay: HTRF nucleotide exchange assay (NEA), KRAS G12C
# T3 construct: 4 nM KRAS; aa1-188 containing the G12V, G12C, G12A or G12S amino acid substitution
# T3 sequence (P01116 1-188 isoform P01116-2 G12C): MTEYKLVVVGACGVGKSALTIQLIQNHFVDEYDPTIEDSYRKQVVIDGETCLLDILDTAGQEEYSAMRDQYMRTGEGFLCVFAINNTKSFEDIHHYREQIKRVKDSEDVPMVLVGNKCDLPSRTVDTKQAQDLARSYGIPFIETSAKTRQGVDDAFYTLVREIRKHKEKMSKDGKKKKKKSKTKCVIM
# Method: as §1
# [4] = target: T4, KRAS G12V (Homo sapiens, UniProt P01116, G12V); assay: HTRF nucleotide exchange assay (NEA), KRAS G12V
# T4 construct: 4 nM KRAS; aa1-188 containing the G12V, G12C, G12A or G12S amino acid substitution
# T4 sequence (P01116 1-188 isoform P01116-2 G12V): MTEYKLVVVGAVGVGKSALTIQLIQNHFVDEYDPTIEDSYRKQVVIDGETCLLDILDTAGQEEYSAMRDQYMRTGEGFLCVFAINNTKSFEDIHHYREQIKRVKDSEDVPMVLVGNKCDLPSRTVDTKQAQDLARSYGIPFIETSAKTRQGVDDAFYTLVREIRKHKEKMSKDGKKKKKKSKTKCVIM
# Method: as §1
IC50 [1] [µM],IC50 [2] [µM],IC50 [3] [µM],IC50 [4] [µM],"IC50 ([3]; recombinant human KRAS G12C aa1-188, 4 nM, lowest class = % inhibition at 10 μM) [µM]","IC50 ([4]; recombinant human KRAS G12V aa1-188, 4 nM, lowest class = % inhibition at 10 μM) [µM]",Structure (SMILES)
0.1 to 10,0.1 to 10,0.1 to 10,0.1 to 10,–,–,"O=C1CCN(c2nc(OCC34CCCN3CCC4)nc3c(F)c(-c4cc(O)cc5ccccc45)ncc23)CCO1 [Example 72, 4-[8-fluoro-2-(1,2,3,5,6,7-hexahydropyrrolizin-8-ylmethoxy)-7-(3-hydroxy-1-naphthyl)pyrido[4,3-d]pyrimidin-4-yl]-1,4-oxazepan-7-one]"
0.1 to 10,0.1 to 10,0.1 to 10,0.1 to 10,–,–,"OCC1CCN(c2nc(OCC34CCCN3CCC4)nc3c(F)c(-c4cc(O)cc5ccccc45)ncc23)C1 (stereo not drawn) [Example 73, 4-[8-fluoro-2-(1,2,3,5,6,7-hexahydropyrrolizin-8-ylmethoxy)-4-[3-(hydroxymethyl)pyrrolidin-1-yl]pyrido[4,3-d]pyrimidin-7-yl]naphthalen-2-ol]"
> 10,0.1 to 10,–,–,> 10,> 10,"CC(C)(O)C1CCN(c2nc(OCC34CCCN3CCC4)nc3c(F)c(-c4cc(O)cc5ccccc45)ncc23)C1 (stereo not drawn) [Example 74, 4-[8-fluoro-2-(1,2,3,5,6,7-hexahydropyrrolizin-8-ylmethoxy)-4-[3-(1-hydroxy-1-methyl-ethyl)pyrrolidin-1-yl]pyrido[4,3-d]pyrimidin-7-yl]naphthalen-2-ol]"
0.1 to 10,0.1 to 10,0.1 to 10,0.1 to 10,–,–,"CN1CCCN(c2nc(OCC34CCCN3CCC4)nc3c(F)c(-c4cc(O)cc5ccccc45)ncc23)CC1=O [Example 75, 4-[8-fluoro-2-(1,2,3,5,6,7-hexahydropyrrolizin-8-ylmethoxy)-7-(3-hydroxy-1-naphthyl)pyrido[4,3-d]pyrimidin-4-yl]-1-methyl-1,4-diazepan-2-one]"
> 10,0.1 to 10,0.1 to 10,0.1 to 10,–,–,"O=C1CC2(CCN(c3nc(OCC45CCCN4CCC5)nc4c(F)c(-c5cc(O)cc6ccccc56)ncc34)C2)CN1 (stereo not drawn) [Example 76, 2-[8-fluoro-2-(1,2,3,5,6,7-hexahydropyrrolizin-8-ylmethoxy)-7-(3-hydroxy-1-naphthyl)pyrido[4,3-d]pyrimidin-4-yl]-2,7-diazaspiro[4.4] nonan-8-one]"
0.1 to 10,0.1 to 10,0.1 to 10,0.1 to 10,–,–,"O=C1NCCC12CCN(c1nc(OCC34CCCN3CCC4)nc3c(F)c(-c4cc(O)cc5ccccc45)ncc13)CC2 [Example 77, 8-[8-fluoro-2-(1,2,3,5,6,7-hexahydropyrrolizin-8-ylmethoxy)-7-(3-hydroxy-1-naphthyl)pyrido[4,3-d]pyrimidin-4-yl]-2,8-diazaspiro[4.5]decan-1-one]"
0.1 to 10,0.1 to 10,0.1 to 10,0.1 to 10,–,–,"CN1CCN(c2nc(OCC34CCCN3CCC4)nc3c(F)c(-c4cc(O)cc5ccccc45)ncc23)CCC1=O [Example 78, 1-[8-fluoro-2-(1,2,3,5,6,7-hexahydropyrrolizin-8-ylmethoxy)-7-(3-hydroxy-1-naphthyl)pyrido[4,3-d]pyrimidin-4-yl]-4-methyl-1,4-diazepan-5-one]"
0.01 to 0.1,0.01 to 0.1,0.01 to 0.1,0.01 to 0.1,–,–,"OCC1CCN(c2nc(OCC34CCCN3CCC4)nc3c(F)c(-c4cc(O)cc5ccccc45)ncc23)CC1 [Example 79, 4-[8-fluoro-2-(1,2,3,5,6,7-hexahydropyrrolizin-8-ylmethoxy)-4-[4-(hydroxymethyl)-1-piperidyl]pyrido[4,3-d]pyrimidin-7-yl]naphthalen-2-ol]"
0.1 to 10,0.1 to 10,0.1 to 10,0.01 to 0.1,–,–,"O=C1CC2(CCN(c3nc(OCC45CCCN4CCC5)nc4c(F)c(-c5cc(O)cc6ccccc56)ncc34)CC2)CN1 [Example 81, 8-[8-fluoro-2-(1,2,3,5,6,7-hexahydropyrrolizin-8-ylmethoxy)-7-(3-hydroxy-1-naphthyl)pyrido[4,3-d]pyrimidin-4-yl]-2,8-diazaspiro[4.5]decan-3-one]"
